Entries after “also recorded” stand apart in the source; their conditions may differ.
Experiments:
[1] = system: scopolamine-induced amnesic mice; experiment: Water maze test; format: in vivo; settings: i.p.; IND8 25 and 50 μmol/kg, QND8 25 μmol/kg
Description: The water maze test, a model for spatial learning and reference memory, related to function in the hippocampus, was also used as a study model in which mice locate a hidden platform after training session. Mice were trained to locate a hidden platform until a steady state measured by a shortened escape latency time was reached.
The average swimming time in a target quadrant where the platform had previously been placed was measured in the test day, day 8 (FIG. 25).
FIG. 25 illustrates the average swimming time in the target quadrant of water maze test. Data are presented in means±SE. IND8, QND8, PNU-282987, vehicle (15% Tween80, SH) and tacrine (TC) were injected 1 h and scopolamine (SC) 30 min before testing, respectively.
A black circular tank (diameter 70 cm; height 28 cm) was divided into 4 quadrants with a removable escape platform (6×7.5×14 cm) centered in a target quadrant. The tank was filled with water to 15 cm height and the platform was located 1 cm below the water surface.
Mice were trained from 5-7 days to get the steady state of escape latency. During day 1 to 5, each mouse was trained to swim from each quadrant with 1 min maximum time and allowed to stay on the platform for 10 sec. The mouse is placed on the platform for 10 s if it cannot find the hidden platform within 1 min. The escape latency time from each quadrant was measured. […] The probe test began when the escape latency time reached the steady state. The platform was removed and time spent in the target quadrant was measured. On the next day, all conditions were the same as probe test, but the platform was brought back to remind the mice of the target quadrant location. All mice were injected with test compounds 1 h and scopolamine 30 min before testing. The swimming time in the target quadrant was measured.

mice = experiment: Locomotor activity test (Y-maze); format: in vivo; settings: all tested doses, i.p., 1 h before
Description: A black polyvinyl chloride Y-maze, which was 40 cm long, 3 cm wide at the bottom and 10 cm wide at the top, and 12 cm high in each arm, was used to study the effect of synthesized compounds on locomotor activity. Each mouse was placed at the end of one arm and was allowed to move freely in Y-maze for 8 min after 1 h injection of vehicle or test compounds. The number of entries to all arms was recorded visually if mice accessed into each arm at least 10 cm from the middle of the maze.
Figure S1. Locomotor activity testing of IND8 (A) and QND8 (B). Mice were injected vehicle or test compounds 1 h before moving freely in Y-maze for 8 min. The number of entries into 3 arms was recorded. The one-way ANOVA was used to evaluate the different result between test and vehicle groups.

hERG K^+ channel = hERG K^+ channel (Homo sapiens, UniProt Q12809); settings: at 20 μM; cited from earlier work
Sequence of hERG K^+ channel (Q12809 whole entry): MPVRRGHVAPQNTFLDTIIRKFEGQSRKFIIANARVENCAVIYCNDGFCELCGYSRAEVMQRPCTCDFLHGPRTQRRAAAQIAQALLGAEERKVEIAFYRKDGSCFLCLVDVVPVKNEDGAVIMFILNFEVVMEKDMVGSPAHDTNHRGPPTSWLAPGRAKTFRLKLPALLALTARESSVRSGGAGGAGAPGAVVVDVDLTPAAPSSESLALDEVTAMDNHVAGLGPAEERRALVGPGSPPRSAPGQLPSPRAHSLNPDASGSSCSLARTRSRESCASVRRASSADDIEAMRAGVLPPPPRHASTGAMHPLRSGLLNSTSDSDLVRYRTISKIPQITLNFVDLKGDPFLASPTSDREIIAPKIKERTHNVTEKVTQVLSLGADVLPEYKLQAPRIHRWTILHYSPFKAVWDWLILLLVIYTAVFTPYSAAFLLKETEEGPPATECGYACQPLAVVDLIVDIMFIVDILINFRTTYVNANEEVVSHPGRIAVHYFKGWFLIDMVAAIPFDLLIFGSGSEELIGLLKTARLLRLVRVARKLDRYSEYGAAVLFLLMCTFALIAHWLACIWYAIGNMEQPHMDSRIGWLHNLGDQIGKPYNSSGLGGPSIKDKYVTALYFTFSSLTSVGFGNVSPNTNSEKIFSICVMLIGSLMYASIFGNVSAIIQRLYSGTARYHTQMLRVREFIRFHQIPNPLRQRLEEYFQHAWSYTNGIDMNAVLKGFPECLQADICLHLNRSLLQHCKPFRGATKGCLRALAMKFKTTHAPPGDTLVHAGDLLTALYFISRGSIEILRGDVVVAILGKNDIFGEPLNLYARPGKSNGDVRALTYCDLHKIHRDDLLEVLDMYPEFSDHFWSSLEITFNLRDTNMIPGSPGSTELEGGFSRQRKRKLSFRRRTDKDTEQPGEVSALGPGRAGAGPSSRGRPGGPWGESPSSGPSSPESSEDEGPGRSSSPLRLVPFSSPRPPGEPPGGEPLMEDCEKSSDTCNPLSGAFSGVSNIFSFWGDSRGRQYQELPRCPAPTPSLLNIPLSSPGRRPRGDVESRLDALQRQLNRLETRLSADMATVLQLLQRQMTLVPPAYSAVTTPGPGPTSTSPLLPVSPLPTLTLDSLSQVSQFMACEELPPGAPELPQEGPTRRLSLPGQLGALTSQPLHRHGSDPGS

SMILES	Time in target quadrant, water maze vs scopolamine-treated group [1]	Locomotor activity (number of arm entries) vs vehicle (mice)	inhibition of hERG (hERG K^+ channel) [%]
Oc1ccc(-c2cn(C3CN4CCC3CC4)nn2)cc1 (centres unmarked) [QND8, 3-(4-hydroxyphenyl-1,2,3-triazol-1-yl) quinuclidine]	significantly spent more time than amnesia group	neither a reduction nor an increase in locomotor activity was observed; also recorded: no significant difference	
c1cc2cc(-c3cn(C4CN5CCC4CC5)nn3)ccc2[nH]1 (centres unmarked) [IND8, 5-((Quinuclid-3-yl)-1H-1,2,3-triazol-4-yl)-1H-indole]	significantly spent more time than amnesia group	neither a reduction nor an increase in locomotor activity was observed; also recorded: no significant difference	
O=C(N[C@H]1CN2CCC1CC2)c1ccc(Cl)cc1 [PNU-282987, reference compound]			57

From patent publication US20180244653A1, “SELECTIVE ALPHA-7 NICOTINIC RECEPTOR AGONISTS AND METHODS FOR MAKING AND USING THEM” (THE REGENTS OF THE UNIVERSITY OF CALIFORNIA, priority 2015, published 2018)
